# Data published in US20250082764A1, “DRUG FOR TREATING TRIPLE NEGATIVE BREAST CANCER” (HINOVA PHARMACEUTICALS INC., priority 2022, published 2025).
# How the values were obtained:
# Format in all cases: cell-based
# MDA-MB-453 cells [1] = experiment: Proliferation of MDA-MB-453 cells, AR PROTAC in combination with PI3K inhibitor Idelalisib (Combination Index); settings: molar ratio of compound to Idelalisib 1:270-1:3.333; 7-10 days; synergistic when CI<1
# Method: Triple negative breast cancer MDA-MB-453 cells in logarithmic growth stage were inoculated into a 96-well plate at a concentration of 4×10^3 cells/well, and then incubated in an incubator at 37° C., 5% CO2, and saturated humidity for 24 h. To the negative control wells, were added RPMI 1640 cell culture medium containing 10% fetal bovine serum in the same volume as the drug. After cultured for 24 h, to the 96-well plate, were sequentially added AR PROTACs compounds 279, 281, 282, ARV-110, ARV-766 and PI3K inhibitor Idelalisib, respectively.
# (§1) After adding the drugs and co-incubating for 7-10 days, 10 μL of CCK-8 was added to each well, and then the plate was further cultured for 2 h. The absorbance value (OD) of each well was measured using a microplate reader at a wavelength of 450 nm. The survival rate was calculated using Prism software, the relative survival rate=(OD value of drug well/OD value of control well)×100%. Alternatively, 100 μL of medium was removed from each well, and then 50 μL of CTG was added. The plate was shaken in the dark for 2 min, allowed to stand for 10 min, and then measured using a microplate reader in Luminescence mode. Prism software was used to calculate the survival rate, the relative survival rate=(the RLU value of drug well/the RLU value of control well)×100%.
# MDA-MB-453 cells [2] = experiment: Proliferation of MDA-MB-453 cells, AR PROTAC in combination with PI3K inhibitor Alpelisib (Combination Index); settings: molar ratio of compound to Alpelisib 1:27-9:1; 7 days; synergistic when CI<1
# Method: Triple negative breast cancer MDA-MB-453 cells in logarithmic growth stage were inoculated into a 96-well plate at a concentration of 4×10^3 cells/well, and then incubated in an incubator at 37° C., 5% CO2, and saturated humidity for 24 h. To the negative control wells, were added RPMI 1640 cell culture medium containing 10% fetal bovine serum in the same volume as the drug. After cultured for 24 h, to the 96-well plate, were sequentially added AR PROTACs compounds 279, 281, 282, ARV-110, ARV-766 and PI3K inhibitor Alpelisib, respectively.
# as §1, with “addition of” for “adding”, “co-incubation” for “co-incubating”, “7” for “7-10”
# MDA-MB-453 cells [3] = experiment: Inhibition of proliferation of MDA-MB-453 cells by single agents (CCK-8 or CTG); settings: single agent; co-incubation for 7-10 days
# Method: Triple negative breast cancer MDA-MB-453 cells in logarithmic growth stage were inoculated into a 96-well plate at a concentration of 4×10^3 cells/well, and then incubated in an incubator at 37° C., 5% CO2, and saturated humidity for 24 h or 48 h. To the negative control well, was added RPMI 1640 cell medium containing 10% fetal bovine serum in the same volume as the drug. After cultured for 24 h or 48 h, to the 96-well plate, were added AR PROTACs compounds 162, 177, 230, 259, 279, 281, 282, 325, 357, 400, ARV-110, ARV-766 and AR inhibitor HC-1119, respectively. The concentrations of compounds 177, 230, 259, 279, 281, 282, 325, 357, 400, ARV-110, and ARV-766 are 0 μM, 0.002 μM, 0.005 μM, 0.014 μM, 0.041 μM, 0.123 μM, 0.370 μM, 1.111μM, 3.333 μM or 10 μM; while the concentrations of HC-1119 are 0 μM, 1.23 μM, 3.70 μM, 11.11 μM, 33.33 μM or 100 μM.
# as §1, with “addition of” for “adding”, “co-incubation” for “co-incubating”
# MDA-MB-453 cells [4] = experiment: Proliferation of MDA-MB-453 cells, AR PROTAC in combination with PI3K inhibitor Duvelisib (Combination Index); settings: molar ratio of compound to Duvelisib 1:30-1:1.111; 7-10 days; synergistic when CI<1
# Method: Triple negative breast cancer MDA-MB-453 cells in logarithmic growth stage were inoculated into a 96-well plate at a concentration of 4×10^3 cells/well, and then incubated in an incubator at 37° C., 5% CO2, and saturated humidity for 24 h. To the negative control wells, were added RPMI 1640 cell culture medium containing 10% fetal bovine serum in the same volume as the drug. After cultured for 24 h, to the 96-well plate, were sequentially added AR PROTACs compounds 279, 281, 282, ARV-110 and PI3K inhibitor Duvelisib, respectively.
# as §1
# MDA-MB-453 cells [5] = experiment: Proliferation of MDA-MB-453 cells, AR PROTAC in combination with chemotherapeutic drug Paclitaxel (Combination Index); settings: molar ratio of compound to Paclitaxel 20:1-5000:1; 7 days; synergistic when CI<1
# Method: Triple negative breast cancer MDA-MB-453 cells in logarithmic growth stage were inoculated into a 96-well plate at a concentration of 4×10^3 cells/well, and then incubated in an incubator at 37° C., 5% CO2, and saturated humidity for 24 h. To the negative control wells, were added RPMI 1640 cell culture medium containing 10% fetal bovine serum in the same volume as the drug. After cultured for 24 h, to the 96-well plate, were sequentially added AR PROTACs compounds 279, 281, 282, ARV-110 and chemotherapeutic drug Paclitaxel, respectively.
# as §1, with “7” for “7-10”
smiles,measurement,setting,value
N#Cc1ccc(O[C@H]2CC[C@H](NC(=O)c3ccc(N4CC5(CCN(CC6CCN(c7ccc8c(c7)C(=O)N(C7CCC(=O)NC7=O)C8=O)CC6)CC5)C4)nn3)CC2)cc1Cl (some centres unmarked) [Compound 282],effect of drug combination with Idelalisib on inhibiting the proliferation of MDA-MB-453 cells,MDA-MB-453 cells [1],synergistic effect
same,effect of drug combination with Alpelisib on inhibiting the proliferation of MDA-MB-453 cells,MDA-MB-453 cells [2],synergistic effect
same,inhibitory effect on the proliferation of MDA-MB-453 cells (in words),MDA-MB-453 cells [3],inhibit the proliferation of MDA-MB-453 cells to varying degrees
same,effect of drug combination with Duvelisib on inhibiting the proliferation of MDA-MB-453 cells,MDA-MB-453 cells [4],synergistic effect
same,effect of drug combination with Paclitaxel on inhibiting the proliferation of MDA-MB-453 cells,MDA-MB-453 cells [5],synergistic effect
